In US20090232919A1 (priority 2006, published 2009):
Marks after values point to notes of the source that are not given here.

What was measured:
Assay type in all cases: in vivo, Male Sprague-Dawley rats
[1] = test system: Acetaminophen-Induced Liver Injury in Rat Model; assay: Orally administrated extract and compound on acetaminophen-induced liver injury in rat model; settings: for increased activity of blood ALT induced by acetaminophen / increased activity of blood LDH induced by acetaminophen: once a day for 4 days; for central necrosis and inflammation of liver (histo-pathological examination): oral, acetaminophen-induced, FIG. 3
Protocol: (§1) Male Sprague-Dawley rats (Samtako Co. Korea) weighing 140-160 g were used in the experiment and were allowed to access to feed (Harlan, teklan, USA) and drinking water. All animals were maintained in a controlled environment with temperatures at 22±2° C. and humidity at 55±5% with 12 hours of light and dark cycles for at least one week prior to use.
24 hours after the end of treatment, the acetaminophen solution prepared in Reference Example (1.2 g/kg) was orally administrated into the rats to induce hepatotoxicity.
24 hours after the treatment, the abdominal cavity was excised to deliver liver organ and blood to test the effect of the inventive extract and compound obtained in Examples on liver injury.
The effect on the indicators of liver injury known in the art, i.e., ALT (R. Rej, Clin. Chem., 24, pp 1971-1979, 1978) and LDH (S. Sherlock et al., Blackwell Science, London, p 23, 2002) activity in rat blood was determined.
The histo-pathological examination on liver organ was performed to determine the effect of inventive extract and compound on the necrosis and inflammation of liver induced by acetaminophen.

[2] = test system: GSH-Depleted Liver Injury in Rat Model; assay: Effect on GSH-depleted (BSO) acetaminophen liver injury in rat model; settings: for necrosis of hepatic cell: orally administrated
Protocol: as §1
3 hours after the end of treatment, 2 mM/kg of BSO (buthionine sulfoximine) was intraperitoneally administrated to the rats to deplete GSH (glutathione) level of the rats. 1 hr after the treatment, the acetaminophen solution prepared in Reference Example (1.2 g/kg) was orally administrated into the rats to induce hepatotoxicity.
24 hours after the inducement, the survival rate of the rats was determined and the abdominal cavity was excised to deliver liver organ to test the effect of the inventive extract and compound obtained in Examples on liver injury.

[3] = test system: Acetaminophen-Induced Liver Injury in Rat Model; assay: Intravenously administrated extract and compound on acetaminophen-induced liver injury in rat model
Protocol: as §1
3 hours after the end of treatment, the acetaminophen solution prepared in Reference Example (1.2 g/kg) was orally administrated into the rats to induce hepatotoxicity.
24 hours after the inducement, the abdominal cavity was excised to deliver liver organ and blood to test the effect of the inventive extract and compound obtained in Examples on liver injury.

[4] = test system: acetaminophen-induced hepatotoxicity in rats; assay: Treating effect on liver injury (dosing after acetaminophen); settings: 50 mg/kg orally from 1 hour after acetaminophen, versus PEG400 (40%) negative control; FIG. 7
Protocol: as §1
The acetaminophen solution prepared in Reference Example (1.2 g/kg) was orally administrated into the rats to induce hepatotoxicity. […] All the testing rats had been starved for 24 hours prior to acetaminophen-administration.
24 hours after the inducement, the abdominal cavity was excised to deliver liver organ to test the effect of the inventive compound obtained in Examples on liver injury.

[5] = oral dose of 50 mg/kg and 100 mg/kg
[6] = GSH-depleted (BSO) + acetaminophen, FIG. 6b
[7] = oral dose of 25 mg/kg and 50 mg/kg, FIG. 1
[8] = intravenous dose of 5 mg/kg and 15 mg/kg, FIG. 4

COC(=O)c1cc(OC)c2c(c1-c1c(C(=O)OC)cc(OC)c3c1OCO3)OCO2 [DDB, dimethyl-4,4′-dimethoxy-5,6,5′,6′-dimethylene dioxybiphenyl-2,2′-dicarboxylate]
Central vein neighboring cell necrosis (N) ([1]; APAP, 50 mg/kg, p.o, n = 10): 2.38 ± 0.5^
Hepatic cell degeneration (HD) Central Vein (CV) ([1]; APAP, 50 mg/kg, p.o, n = 10): 0.4 ± 0.2
Hepatic cell degeneration (HD) Limbic region ([1]; APAP, 50 mg/kg, p.o, n = 10): 0
Hepatic cell degeneration (HD) Middle Region ([1]; APAP, 50 mg/kg, p.o, n = 10): 0.2 ± 0.2
Inflammatory cell ([1]; APAP, 50 mg/kg, p.o, n = 10): 0^##
Survival ratio (%) ([1]; APAP, 50 mg/kg, p.o, n = 10): 100%
increased activity of blood ALT induced by acetaminophen [1, 5]: strikingly reduce
increased activity of blood LDH induced by acetaminophen [1, 5]: strikingly reduce
central necrosis and inflammation of liver (histo-pathological examination) [1]: reduced little
necrosis of hepatic cell [2, 6]: could not reduce

O=C1C[C@@H](c2ccc(O)cc2)Oc2cc(O)ccc21 [LQ, liquiritigenin]
Central vein neighboring cell necrosis (N) ([1]; APAP, 50 mg/kg, p.o, n = 10): 0.8 ± 0.8
Hepatic cell degeneration (HD) Central Vein (CV) ([1]; APAP, 50 mg/kg, p.o, n = 10): 0.8 ± 0.8
Hepatic cell degeneration (HD) Limbic region ([1]; APAP, 50 mg/kg, p.o, n = 10): 0.2 ± 0.2
Hepatic cell degeneration (HD) Middle Region ([1]; APAP, 50 mg/kg, p.o, n = 10): 0.6 ± 0.6
Inflammatory cell ([1]; APAP, 50 mg/kg, p.o, n = 10): 0^##
increased activity of blood ALT induced by acetaminophen [1, 7]: significantly reduced
increased activity of blood LDH induced by acetaminophen [1, 7]: significantly reduced
central necrosis and inflammation of liver (histo-pathological examination) [1]: strikingly reduced
Central vein neighboring cell necrosis (N) ([3]; APAP, 5 mg/kg, i. v): 0.2 ± 0.2
Hepatic cell degeneration (HD) Central Vein (CV) ([3]; APAP, 5 mg/kg, i. v): 0.8 ± 0.4
Hepatic cell degeneration (HD) Limbic region ([3]; APAP, 5 mg/kg, i. v): 0
Hepatic cell degeneration (HD) Middle Region ([3]; APAP, 5 mg/kg, i. v): 0.6 ± 0.4
Inflammatory cell ([3]; APAP, 5 mg/kg, i. v): 0
increased activity of blood ALT induced by acetaminophen [3, 8]: significantly reduced
increased activity of blood LDH induced by acetaminophen [3, 8]: significantly reduced
central necrosis and inflammation of liver ([3]; intravenously administrated, FIG. 5): strikingly reduced
Hepatic cell degeneration (HD) Central Vein (CV) ([2]; APAP + BSO, 15 mg/kg,i.v.): 0.2 ± 0.2
Hepatic cell degeneration (HD) Limbic region ([2]; APAP + BSO, 15 mg/kg,i.v.): 2 ± 0.03
Hepatic cell degeneration (HD) Middle Region ([2]; APAP + BSO, 15 mg/kg,i.v.): 0.2 ± 0.2
Hepatic cell degeneration (HD) Central Vein (CV) ([2]; APAP + BSO, 50 mg/kg, p.o): 1.5 ± 0.5
Hepatic cell degeneration (HD) Limbic region ([2]; APAP + BSO, 50 mg/kg, p.o): 1.5 ± 0.5
Hepatic cell degeneration (HD) Middle Region ([2]; APAP + BSO, 50 mg/kg, p.o): 1.5 ± 0.5
Inflammatory cell ([2]; APAP + BSO, 50 mg/kg, p.o): 0
survival rate ([2]; GSH-depleted (BSO) + acetaminophen, versus 26.7% without treatment): strikingly increased
hepatic injury ([2]; intravenously administrated for 2 days, GSH-depleted, FIG. 6b): apparently inhibits
necrosis of hepatic cell [2, 6]: strikingly reduced
necrosis of hepatic cell [4]: more strikingly inhibited
